Structures can show the parent of a compound that is named as a salt. Where two headings read alike, the source gives them in different places.
Tests used:
Assay type in all cases: cell-based
Proteus vulgaris SRI 180 = assay: agar disc diffusion assay, P. vulgaris; details: SRI180, 240 ug/disc, about 24 hr at 37° C., Mueller-Hinton agar, read-out: Diameter of the zone of inhibition, P. vulgaris
Protocol: (§1) The activity of the compounds is determined using the following assay. The compound is dissolved in DMSO at a concentration of 6 mg/ml and then diluted with water to a final concentration of 3 mg/ml in 50% DMSO (% DMSO was shown not to be inhibitory to the test organisms). An aliquot (0.08 ml) of each drug solution was transferred to filter paper discs (12.7 mm diameter, Scmeicherand Schuell) for use in the agar diffusion assay. The concentration of each drug on the filter paper disc was 240 ug/disc. The test organisms included the following: Gram-positive aerobes (Staphylococcus aureus SRI 1323, Streptococcus pneumoniae SRI 1167); Gram-negative aerobe (Proteus vulgaris SRI 180); and the yeast Candida albicans SRI 523. An agar disc diffusion assay was used to evaluate the antimicrobial activity of the test compounds. Briefly, cultures were prepared from 16-20 hr agar slant cultures by inoculating in physiological saline to a turbidity equivalent to a #0.5 McFarland turbidity standard for the bacteria and a #3 McFarland standard for C. albicans. The surface of Mueller-Hinton agar (15×100 mm plates, mm) were evenly inoculated with each standardized culture using a cotton swab. Filter paper discs containing the drug concentration listed above were then placed on the inoculated agar plates along with a disc containing the solvent used to dissolve each drug. The plates were incubated at 37° C. for about 24 hr and the diameters of the zones of inhibition measured with a vernier caliper. Positive control drugs consisted of streptomycin for use with the bacterial strains and 5-fluorocytosine for use with C. albicans. The positive control drugs were assayed as described above for the compounds of the present invention using the same concentration.

Candida albicans SRI 523 = assay: agar disc diffusion assay, C. albicans; details: SRI523, 240 ug/disc, about 24 hr at 37° C., Mueller-Hinton agar, read-out: Diameter of the zone of inhibition, C. albicans
Protocol: as §1

[1] = system: microtubule cytoskeleton of cultured human CG neuroblastoma cells; assay: Antimicrotubule activity (tubulin immunofluorescence microscopy); details: Neuroblastoma cell, read-out: Concentration where microtubule destabilization occurs
Protocol: The compounds of the invention according to formula I are effective in destabilizing microtubules, thus are useful in treating certain neoplastic diseases. Indirect immunofluorescence microscopy using the monoclonal antibodies to tubulin is used herein to determine the activity of the compounds of this invention in promoting depolymerization of the microtubule cytoskeleton in cultured cells. The following assay was employed.
Cultured human CG neuroblastoma cells were seeded 1:3 from confluent cultures onto sterile 11×22 mm coverslips in 6 well tissue culture plates 16 hr prior to treatment. The following day, the tissue culture medium is removed and the cells are exposed to various concentrations of compounds of this invention in Krebs Ringer Hepes (KRH) buffer containing a final concentration of 0.5% DMSO as carrier. Incubations were performed at 37° C. in a humidified 5% CO2 atmosphere for 2 hr. After incubation, the cells were fixed in 3% TEM grade formaldehyde in PBS for 45 min at room temperature.
To visualize the effects of the compounds of the invention on the microtubule cytoskeleton, the cells were processed for tubulin immunofluorescence. Briefly, the cells were permeabilized in 0.5% Triton-X 100 in PBS for 5 min. The cells were washed 2× with PBS and aldehydes reduced using 0.5 mg/ml NaBH4 in PBS for 5 min. Subsequently, the cells were blocked for 10 min in 1.5% BSA and 1.5% nonfat dry milk in PBS (blocking solution, BS) for 10 min. The cells were then incubated for 30 min at 37° C. with the monoclonal antibody Tu27B which recognizes b-tubulin (dilution 1:20 in BS). Subsequently, the cells were washed 2× in PBS and once in BS. The cells were then incubated for 30 min at 37° C. with sheep antimouse IgG conjugated to FITC. After incubation, the cells were washed 2× in PBS and once in BS and incubated. for 30 min at 37° C. with rabbit antisheep IgG conjugated to FITC. The cells were rinsed in PBS, counterstained with Hoechst 33285 in PBS (1 μg/ml), and rinsed in PBS. The coverslips were mounted in 9:1 glycerol:PBS containing 1 mg/ml p-phenylenediamine and sealed with nail polish.
The cells were viewed using a Jenalumar epifluorescence microscope equipped with the proper filters for Fluorescein Isothiocyanate (FITC) excitation and emission. Lack of effect of a compound is evidenced by the presence of an intact microtubule network in interphase cells, or a mitotic spindle dividing cells. Antineoplastic compounds of the invention at effective doses result in the disapperance of microtubules in both interphase and mitotic cells.

[2] = system: Staphylococcus aureus SRI 1323; assay: agar disc diffusion assay, S. aureus; details: SRI1323, 240 ug/disc, about 24 hr at 37° C., Mueller-Hinton agar, read-out: Diameter of the zone of inhibition, S. aureus
Protocol: as §1

[3] = system: Streptococcus pneumoniae SRI 1167; assay: agar disc diffusion assay, S. pneumoniae; details: 240 ug/disc, about 24 hr at 37° C.; for zone of inhibition at 240 µg/disc: Streptococcus pneumoniae, SRI1167, Mueller-Hinton agar, read-out: Diameter of the zone of inhibition, S. pneumoniae
Protocol: as §1

[4] = 2 hr at 37° C., 0.5% DMSO in KRH

Compound | zone of inhibition at 240 µg/disc (Proteus vulgaris SRI 180) [mm] | zone of inhibition at 240 µg/disc (Candida albicans SRI 523) [mm] | minimal effective concentration [1, 4] [µM] | zone of inhibition at 240 µg/disc [2] [mm] | zone of inhibition at 240 µg/disc [3] [mm] | also measured
O=C(CCN1CCN(Cc2ccccc2)CC1)c1ccc([N+](=O)[O-])cc1 [Example 5, 1-(p-Nitrophenyl)-3-(4'-benzyl-1'-piperazinyl)-1-propanone dihydrochloride] | 17.3 | 17.6 | 4 | 22.8 | 29.9 | 
O=C(CCN1CCN(Cc2ccccc2)CC1)c1cccs1 [Example 7, 1-(2"-Thienyl)-3-(4'-benzyl-1'-piperazinyl)-1-propanone dihydrochloride] |  |  | 20 |  |  | 
O=C(CCN1CCN(Cc2ccccc2)CC1)c1ccc(F)c2ccccc12 [Example 21, 1-(4"-Fluoronaphth-1"-yl)-3-(4'-benzyl-1'-piperazinyl)-1-propanone dihydrochloride] | 0 | 26.6 | 20 | 33.8 | 40.7 | 
O=C(CCN1CCN(Cc2ccccc2)CC1)c1ccc(F)c(Br)c1 [Example 25, 1-(p-Fluoro-m-bromophenyl)-3-(4'-benzyl-1'-piperazinyl)-1-propanone dihydrochloride] | 16 | 26 |  | 27.5 | 36.3 | 
O=C(CCN1CCN(Cc2ccccc2)CC1)c1ccc(C2CCCCC2)cc1 [Example 27, 1-(p-Cyclohexylphenyl)-3-(4'-benzyl-1'-piperazinyl)-1-propanone dihydrochloride] |  |  | 20 |  |  | 
O=C(CCN1CCN(Cc2cc(F)ccc2F)CC1)c1ccsc1 [Example 38, 1-(3"-Thienyl)-3-[4'-(2'",5'"-difluorobenzyl)-1'-piperazinyl]-1-propanone dihydrochloride] |  |  | 20 |  |  | 
O=C(CCN1CCN(C(=O)c2c(F)cccc2F)CC1)c1ccccc1F [Example 41, 1-(o-Fluorophenyl)-3-[4'-(2",6"-difluorobenzoyl)-1'-piperazinyl]-1-propanone hydrochloride] |  |  | 20 |  |  | 
O=C(CCN1CCN(C(=O)c2ccccc2C(F)(F)F)CC1)c1ccccc1F [Example 43, 1-(o-Fluorophenyl)-3-[4'-(o-trfuoromethylbenzoyl)-1'-piperazinyl]-1-propanone hydrochloride] | 15.9 | 22.5 |  | 17.7 | 25.3 | 
N#Cc1cccc(C(=O)CCN2CCN(Cc3ccccc3)CC2)c1 [Example 60, 1-(m-Cyanophenyl)-3-(4'-benzyl-1'-piperazinyl)-1-propanone dihydrochloride] |  |  | 20 |  |  | 
O=C(CCN1CCN(C(c2ccccc2)c2ccc(Cl)cc2)CC1)c1ccc(Br)s1 (centres unmarked) [Example 78, 1-(5"-Bromo-2"-thienyl)-3-[4'-(1'"-p-chlorophenyl-1'"-phenylmethyl)-1'-piperazinyl]-1-propanone dihydrochloride] | 14.5 | 15.2 |  | 16.2 | 19.7 | 
O=C(CCN1CCN(Cc2ccccc2)CC1)c1csc([N+](=O)[O-])c1 [Example 80, 1-(5"-Nitro-3"-thienyl)-3-(4'-benzyl-1'-piperazinyl)-1-propanone dihydrochloride] | 13.8 | 14.5 |  | 17.2 |  | Diameter of the zone of inhibition, S. pneumoniae (symbol) ([3]; zone too large to measure): +
N#Cc1ccc(C(=O)CCN2CCN(Cc3ccccc3)CC2)s1 [Example 85, 1-(5"-Cyano-2"-thienyl)-3-(4'-benzyl-1'-piperazinyl)-1-propanone dihydrochloride] |  |  | 20 |  |  | 
O=C(CCN1CCN(Cc2ccccc2)CC1)c1cc([N+](=O)[O-])c(Cl)s1 [Example 95, 1-(5"-Chloro-4"-nitro-2"-thienyl)-3-(4'-benzyl-1'-piperazinyl)-1-propanone dihydrochloride] |  |  | 20 |  |  | 
O=C(CCN1CCN(Cc2ccccc2)CC1)c1conc1-c1ccccc1 [Example 112, 1-(3"-Phenylisoxazol-4"-yl)-3-(4'-benzyl-1'-piperazinyl)-1-propanone dihydrochloride] |  |  | 20 |  |  | 
O=C(CCN1CCN(Cc2ccccc2)CC1)c1ccc(Nc2ccc([N+](=O)[O-])cc2[N+](=O)[O-])cc1 [Example 113, 1-(4"-[2'",4'"-Dinitrophenylamino]phenyl)-3-(4'-benzyl-1'-piperazinyl)-1-propanone dihydrochloride] |  |  |  |  |  | minimal effective concentration ([1]; 2 h): 20 µM
